According to PubChem BioAssay AID2060627 (Molecular Pharmacology Branch, DTP, NCI, 2025):

Test system: 156681-154-R-J1-PDC complex spheroid viability
Test: Anticancer human tumor 156681-154-R-J1-PDC patient-derived melanoma cell line growth inhibition [CLK]
Settings: for IC50: curve of first compound; for viability, T/C: stronger effect = lower value
In short: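 Multi-cell-type spheroids combined patient-derived tumor cells with HUVEC endothelial cells and human mesenchymal stem cells. Paired agents were dosed in half-log steps down from about clinical Cmax, or from 10 microM where Cmax was unknown.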

[1] = second compound 0.0316 µM, first compound 0.0316 µM
[2] = second compound 0.0316 µM, first compound 0.1 µM
[3] = second compound 0.0316 µM, first compound 0.316 µM
[4] = second compound 0.0316 µM, first compound 1 µM
[5] = second compound 0.0316 µM, first compound 3.16 µM
[6] = second compound 0.0316 µM, first compound 10 µM
[7] = second compound 0.1 µM, first compound 0.0316 µM
[8] = second compound 0.1 µM, first compound 0.1 µM
[9] = second compound 0.1 µM, first compound 0.316 µM
[10] = second compound 0.1 µM, first compound 1 µM
[11] = second compound 0.1 µM, first compound 3.16 µM
[12] = second compound 0.1 µM, first compound 10 µM
[13] = second compound 0.316 µM, first compound 0.0316 µM
[14] = second compound 0.316 µM, first compound 0.1 µM
[15] = second compound 0.316 µM, first compound 0.316 µM
[16] = second compound 0.316 µM, first compound 1 µM
[17] = second compound 0.316 µM, first compound 3.16 µM
[18] = second compound 0.316 µM, first compound 10 µM
[19] = second compound 1 µM, first compound 0.0316 µM
[20] = second compound 1 µM, first compound 0.1 µM
[21] = second compound 1 µM, first compound 0.316 µM
[22] = second compound 1 µM, first compound 1 µM
[23] = second compound 1 µM, first compound 3.16 µM
[24] = second compound 1 µM, first compound 10 µM
[25] = second compound 3.16 µM, first compound 0.0316 µM
[26] = second compound 3.16 µM, first compound 0.1 µM
[27] = second compound 3.16 µM, first compound 0.316 µM
[28] = second compound 3.16 µM, first compound 1 µM
[29] = second compound 3.16 µM, first compound 3.16 µM
[30] = second compound 3.16 µM, first compound 10 µM
[31] = second compound 10 µM, first compound 0.0316 µM
[32] = second compound 10 µM, first compound 0.1 µM
[33] = second compound 10 µM, first compound 0.316 µM
[34] = second compound 10 µM, first compound 1 µM
[35] = second compound 10 µM, first compound 3.16 µM
[36] = second compound 10 µM, first compound 10 µM
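Also: spheroids exposed to the agents for seven days.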
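For viability, T/C in this document: 100% = DMSO vehicle control viability.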

`COc1ccc([C@@H](O)c2cc(-c3ncnc4cc(N5CCOCC5)ccc34)c(F)cc2Cl)nn1` + CNC(=O)c1ccc(Nc2nc(OC3CCCC3)c3c(-c4ccc5nc(C)oc5c4)c[nH]c3n2)c(OC)c1 gave an IC50 (second compound 0.0316 µM) of 1910 nM, an IC50 (second compound 0.1 µM) of 1480 nM and an IC50 (second compound 0.316 µM) of 1100 nM. For the same compound, the IC50 (second compound 1 µM) was 116 nM, the IC50 (second compound 3.16 µM) was < 31.6 nM and the IC50 (second compound 10 µM) was < 31.6 nM. It also gave a viability, T/C [1] of 80.7%, a viability, T/C [2] of 97.2% and a viability, T/C [3] of 87.8%. It also gave a viability, T/C [4] of 69.8%, a viability, T/C [5] of 34.6% and a viability, T/C [6] of 29%. The viability, T/C [7] was 44.7%, the viability, T/C [8] was 64.6% and the viability, T/C [9] was 52.2%. The viability, T/C [10] was 56.8%, the viability, T/C [11] was 41.2% and the viability, T/C [12] was 21.3%. For the same compound, the viability, T/C [13] was 59.5%, the viability, T/C [14] was 62% and the viability, T/C [15] was 50.9%. For the same compound, the viability, T/C [16] was 52.9%, the viability, T/C [17] was 28.4% and the viability, T/C [18] was 20.7%. The viability, T/C [19] was 50.8%, the viability, T/C [20] was 55.6% and the viability, T/C [21] was 47.7%. For the same compound, the viability, T/C [22] was 29.2%, the viability, T/C [23] was 32.8% and the viability, T/C [24] was 9.5%. It also gave a viability, T/C [25] of 46.8%, a viability, T/C [26] of 47.6% and a viability, T/C [27] of 37.1%. It also gave a viability, T/C [28] of 33.7%, a viability, T/C [29] of 29.7% and a viability, T/C [30] of 5.99%. The viability, T/C [31] was 39.3%, the viability, T/C [32] was 30% and the viability, T/C [33] was 29.9%. For the same compound, the viability, T/C [34] was 28%, the viability, T/C [35] was 18.9% and the viability, T/C [36] was 2.83%.
In the case of `C=CC(=O)Nc1cc(Nc2nccc(-c3cn(C)c4ccccc34)n2)c(OC)cc1N(C)CCN(C)C` + CN1CCN(c2cc(C(=O)Nc3cc4cc(-c5cnn(C)c5)ccc4cn3)ccn2)CC1, the IC50 (second compound 0.0316 µM) is reported as > 300 nM, the IC50 (second compound 0.1 µM) is reported as > 300 nM and the IC50 (second compound 0.316 µM) is reported as < 0.949 nM. The IC50 (second compound 1 µM) was < 0.949 nM, the IC50 (second compound 3.16 µM) was < 0.949 nM and the IC50 (second compound 10 µM) was < 0.949 nM. It also gave a viability, T/C (second compound 0.0316 µM, first compound 0.000949 µM) of 102%, a viability, T/C (second compound 0.0316 µM, first compound 0.003 µM) of 91.7% and a viability, T/C (second compound 0.0316 µM, first compound 0.00949 µM) of 112%. The viability, T/C (second compound 0.0316 µM, first compound 0.03 µM) was 89.8%, the viability, T/C (second compound 0.0316 µM, first compound 0.0949 µM) was 94.8% and the viability, T/C (second compound 0.0316 µM, first compound 0.3 µM) was 90%. For the same compound, the viability, T/C (second compound 0.1 µM, first compound 0.000949 µM) was 99.7%, the viability, T/C (second compound 0.1 µM, first compound 0.003 µM) was 90.2% and the viability, T/C (second compound 0.1 µM, first compound 0.00949 µM) was 97.7%. It also gave a viability, T/C (second compound 0.1 µM, first compound 0.03 µM) of 94.7%, a viability, T/C (second compound 0.1 µM, first compound 0.0949 µM) of 77.6% and a viability, T/C (second compound 0.1 µM, first compound 0.3 µM) of 79.9%. It also gave a viability, T/C (second compound 0.316 µM, first compound 0.000949 µM) of 19.2%, a viability, T/C (second compound 0.316 µM, first compound 0.003 µM) of 26.4% and a viability, T/C (second compound 0.316 µM, first compound 0.00949 µM) of 23.4%. It also gave a viability, T/C (second compound 0.316 µM, first compound 0.03 µM) of 13.1%, a viability, T/C (second compound 0.316 µM, first compound 0.0949 µM) of 24.2% and a viability, T/C (second compound 0.316 µM, first compound 0.3 µM) of 11.1%. It also gave a viability, T/C (second compound 1 µM, first compound 0.000949 µM) of 0.2%, a viability, T/C (second compound 1 µM, first compound 0.003 µM) of 0.66% and a viability, T/C (second compound 1 µM, first compound 0.00949 µM) of 0.19%. It also gave a viability, T/C (second compound 1 µM, first compound 0.03 µM) of 0.27%, a viability, T/C (second compound 1 µM, first compound 0.0949 µM) of 0.26% and a viability, T/C (second compound 1 µM, first compound 0.3 µM) of 1.38%. For the same compound, the viability, T/C (second compound 3.16 µM, first compound 0.000949 µM) was 0.16%, the viability, T/C (second compound 3.16 µM, first compound 0.003 µM) was 1.53% and the viability, T/C (second compound 3.16 µM, first compound 0.00949 µM) was 0.47%. For the same compound, the viability, T/C (second compound 3.16 µM, first compound 0.03 µM) was 0.12%, the viability, T/C (second compound 3.16 µM, first compound 0.0949 µM) was 1.26% and the viability, T/C (second compound 3.16 µM, first compound 0.3 µM) was 0.93%. The viability, T/C (second compound 10 µM, first compound 0.000949 µM) was 1.34%, the viability, T/C (second compound 10 µM, first compound 0.003 µM) was 0.16% and the viability, T/C (second compound 10 µM, first compound 0.00949 µM) was 0.96%. It also gave a viability, T/C (second compound 10 µM, first compound 0.03 µM) of 1.65%, a viability, T/C (second compound 10 µM, first compound 0.0949 µM) of 2.39% and a viability, T/C (second compound 10 µM, first compound 0.3 µM) of 2.57%.
With `O=c1[nH]cc(F)c(=O)[nH]1` + CNC(=O)c1ccc(Nc2nc(OC3CCCC3)c3c(-c4ccc5nc(C)oc5c4)c[nH]c3n2)c(OC)c1 the IC50 (second compound 0.0316 µM) was 7950 nM, the IC50 (second compound 0.1 µM) was 5500 nM and the IC50 (second compound 0.316 µM) was 3420 nM. For the same compound, the IC50 (second compound 1 µM) was 4120 nM, the IC50 (second compound 3.16 µM) was < 31.6 nM and the IC50 (second compound 10 µM) was < 31.6 nM. It also gave a viability, T/C [1] of 96.6%, a viability, T/C [2] of 99% and a viability, T/C [3] of 91.9%. For the same compound, the viability, T/C [4] was 95.9%, the viability, T/C [5] was 86.9% and the viability, T/C [6] was 40.8%. It also gave a viability, T/C [7] of 63.9%, a viability, T/C [8] of 79.2% and a viability, T/C [9] of 74.4%. For the same compound, the viability, T/C [10] was 74.3%, the viability, T/C [11] was 59.6% and the viability, T/C [12] was 39.7%. It also gave a viability, T/C [13] of 78.6%, a viability, T/C [14] of 75.2% and a viability, T/C [15] of 73.4%. For the same compound, the viability, T/C [16] was 60.7%, the viability, T/C [17] was 53.8% and the viability, T/C [18] was 30.6%. The viability, T/C [19] was 70.7%, the viability, T/C [20] was 46.3% and the viability, T/C [21] was 58.2%. It also gave a viability, T/C [22] of 52.7%, a viability, T/C [23] of 62.2% and a viability, T/C [24] of 23.6%. For the same compound, the viability, T/C [25] was 49.7%, the viability, T/C [26] was 42.3% and the viability, T/C [27] was 47.9%. For the same compound, the viability, T/C [28] was 43.8%, the viability, T/C [29] was 35% and the viability, T/C [30] was 19.8%. It also gave a viability, T/C [31] of 51%, a viability, T/C [32] of 40.5% and a viability, T/C [33] of 41.2%. The viability, T/C [34] was 45.4%, the viability, T/C [35] was 41.2% and the viability, T/C [36] was 20.1%.
